Measurements reported in ChEMBL document CHEMBL1154314, “Synthesis and antitumor activities of 3-modified 2-methoxyestradiol analogs” (Bioorg Med Chem Lett, 2009).

What was measured:
[1] = test system: MDA-MB-231; test: Antiproliferative activity against human MDA-MB-231 cells; assay type: functional, cell-based
[2] = test system: HUVEC; test: Antiangiogenic activity in HUVEC assessed as inhibition of cell proliferation; assay type: functional, cell-based; conditions: Homo sapiens

Compound	IC50 [1] [µM]	IC50 [2] [µM]
COc1cc2c(cc1F)CC[C@@H]1[C@@H]2CC[C@]2(C)[C@@H](O)CC[C@@H]12	2.94	2.1
COc1cc2c(cc1NS(=O)(=O)C(F)(F)F)CC[C@@H]1[C@@H]2CC[C@]2(C)[C@@H](O)CC[C@@H]12	> 100	46.2
COc1cc2c(cc1C#N)CC[C@@H]1[C@@H]2CC[C@]2(C)[C@@H](O)CC[C@@H]12	8.98	2.65
C=Cc1cc2c(cc1OC)[C@H]1CC[C@]3(C)[C@@H](O)CC[C@H]3[C@@H]1CC2	8.93	1.96
COc1cc2c(cc1Br)CC[C@@H]1[C@@H]2CC[C@]2(C)[C@@H](O)CC[C@@H]12	27.5	9.13
COc1cc2c(cc1OC)[C@H]1CC[C@]3(C)[C@@H](O)CC[C@H]3[C@@H]1CC2	43.7	31.5
COc1cc2c(cc1NC#N)CC[C@@H]1[C@@H]2CC[C@]2(C)[C@@H](O)CC[C@@H]12	0.62	0.47
COc1cc2c(cc1C(=O)N(C)C)CC[C@@H]1[C@@H]2CC[C@]2(C)[C@@H](O)CC[C@@H]12	> 10	> 10
COc1cc2c(cc1S)CC[C@@H]1[C@@H]2CC[C@]2(C)[C@@H](O)CC[C@@H]12	56.2	12.9
COc1cc2c(cc1CO)CC[C@@H]1[C@@H]2CC[C@]2(C)[C@@H](O)CC[C@@H]12	55.6	28.2
COc1cc2c(cc1N(C)C)CC[C@@H]1[C@@H]2CC[C@]2(C)[C@@H](O)CC[C@@H]12	103	2.82
COc1cc2c(cc1NC(C)=O)CC[C@@H]1[C@@H]2CC[C@]2(C)[C@@H](O)CC[C@@H]12	3.95	1.65
CCc1cc2c(cc1OC)[C@H]1CC[C@]3(C)[C@@H](O)CC[C@H]3[C@@H]1CC2	46.9	5.44
COc1cc2c(cc1NS(N)(=O)=O)CC[C@@H]1[C@@H]2CC[C@]2(C)[C@@H](O)CC[C@@H]12	9.47	3.88
COc1cc2c(cc1NC(N)=O)CC[C@@H]1[C@@H]2CC[C@]2(C)[C@@H](O)CC[C@@H]12	0.65	0.59
COc1cc2c(cc1Cl)CC[C@@H]1[C@@H]2CC[C@]2(C)[C@@H](O)CC[C@@H]12	26.9	7.45
COC(=O)c1cc2c(cc1OC)[C@H]1CC[C@]3(C)[C@@H](O)CC[C@H]3[C@@H]1CC2	> 100	> 100
COC(=O)Nc1cc2c(cc1OC)[C@H]1CC[C@]3(C)[C@@H](O)CC[C@H]3[C@@H]1CC2	17.6	5.92
COc1cc2c(cc1C(=O)O)CC[C@@H]1[C@@H]2CC[C@]2(C)[C@@H](O)CC[C@@H]12	> 100	> 100
COc1cc2c(cc1C(N)=O)CC[C@@H]1[C@@H]2CC[C@]2(C)[C@@H](O)CC[C@@H]12	2.36	2.59
COc1cc2c(cc1NC=O)CC[C@@H]1[C@@H]2CC[C@]2(C)[C@@H](O)CC[C@@H]12	0.78	0.07
COc1cc2c(cc1N)CC[C@@H]1[C@@H]2CC[C@]2(C)[C@@H](O)CC[C@@H]12	2.48	2.32
COc1ccc2c(c1)[C@H]1CC[C@]3(C)[C@@H](O)CC[C@H]3[C@@H]1CC2	62	22.1
COc1cc2c(cc1OS(=O)(=O)C(F)(F)F)CC[C@@H]1[C@@H]2CC[C@]2(C)[C@@H](O)CC[C@@H]12	21.4	3.27
CNC(=O)c1cc2c(cc1OC)[C@H]1CC[C@]3(C)[C@@H](O)CC[C@H]3[C@@H]1CC2	> 100	> 100
